Assays:
[1] = Solubility study of calcitriol in each formulation (light microscope); assay type: physicochemical; settings: each formulation of Table 3; heated to 50° C., cooled to room temperature; highest concentration tested
Experimental: To further assess the formulations of calcitriol, a solubility study was conducted to evaluate the amount of calcitriol soluble in each formulation. Calcitriol concentrations from 0.1 to 0.6 μg calcitriol/mg formulation were prepared by heating the formulations to 50° C. followed by addition of the appropriate mass of calcitriol. The formulations were then allowed to cool to room temperature and the presence of undissolved calcitriol was determined by a light microscope with and without polarizing light. For each formulation, calcitriol was soluble at the highest concentration tested, 0.6 μg calcitriol/mg formulation.

[2] = system: patients with androgen independent prostate cancer; settings: human, in vivo
Experimental: Two hundred fifty patients with androgen independent prostate cancer were enrolled in a randomized placebo controlled trial at 48 centers in the United States and Canada.
The same Taxotere® dose of 36 mg/m^2 body surface area was administered to the patients receiving Taxotere® and placebo or Taxotere® in combination with calcitriol.
Hospitalization for dehydration was more common in those patients receiving Taxotere® and placebo.

patients = settings: administered doses with cisplatin infusions; cited from earlier work

Row | Compound | Calcitriol soluble in formulation [1] | GI disorders versus Taxotere and placebo [2] | Emesis, percent of patients (patients) | Hypotension, percent of patients (patients)
1 | C=C1/C(=C\C=C2/CCC[C@]3(C)[C@@H]([C@H](C)CCCC(C)(C)O)CC[C@@H]23)C[C@@H](O)C[C@@H]1O [Calcitriol, 1α,25-hydroxyvitamin D3] | ≥ 0.6 μg calcitriol/mg formulation | fewer GI disorders | – | –
2 | NCCCNCCSP(=O)(O)O [WR 2721, S-2-(3-aminopropylamino)ethylphosphorothioic acid] | – | – | 48 % of patients | 7 % of patients

Source: patent US20090163453A1, “Prevention and Treatment of Gastrointestinal and Bladder Disorders Associated with Chemotherapy or Radiation Therapy Using Active Vitamin D Compounds” (Novacea Inc., priority 2005, published 2009)
